Patent US20120065228A1, “COMPOSITIONS AND METHODS FOR TREATING, CONTROLLING, REDUCING, OR AMELIORATING OCULAR INFLAMMATORY WITH LOWER RISK OF INCREASED INTRAOCULAR PRESSURE” (priority 2007, published 2012)

Test system: intraocular pressure (IOP) in New Zealand White rabbits
Assay: Intraocular pressure in New Zealand White rabbits, topical dosing four times daily
Type: in vivo
Experimental: On Days 1-31, animals received daily topical doses of the appropriate test article into the right eye. Animals were dosed four times per day, with doses administered 2 hours apart. Doses were administered using a calibrated 50-μL pipette. The eyelids were held close for 10 seconds immediately following dosing. The time of each dose administration was recorded.
Intraocular pressure (“IOP”) was determined for both eyes of each animal on Days 3, 5, 10, 12, 16, 18, 22, 24, 26, 30, and 32. LOP was evaluated with a Medtronic Solan, Model 30 classic pneumatonometer. Proparacaine hydrochloride 0.5% (1 drop) was delivered to each eye prior to IOP measurement. IOP was measured on Monday, Wednesday, and Friday of each week. A two-point diurnal curve was established: IOP was recorded at 8 a.m. and 12 p.m. on Day 3, and at 8 a.m. and 2 p.m. on later days, with a ±1 hour range for each of these times. The time of the measurements was recorded.
Descriptive statistics were prepared for IOP data of each treatment group (left and right eyes separately) at each measurement interval. The statistics included the number of observations (“N”), mean, standard deviation (“STD”), and standard error (“SEM”). Statistical analyses were conducted on IOP results using Statistical Analysis Systems (SAS Institute, Inc., Cary, N.C., V8.0). Parameters were evaluated using analysis of variance/GLM Procedure followed by Tukey's Standardized Range Test (Tukey, 1985) for post hoc comparisons of group means. The level of significance was set at a probability of p<0.05 for all statistical procedures. Group IOP means were compared at each interval, with left and right eyes compared separately.
IOP data for the following six animals were excluded from group statistics: Group A, Nos. 3081, 3037, 3068, and 3011; Group C, No. 3034; and Group E, No. 3084.

SMILES: Cc1ccc2c(NCC(O)(CC(C)(C)c3cc(F)cc4c3OCC4)C(F)(F)F)cccc2n1 (centres unmarked) [BOL-303242-X]
- Intraocular Pressure, MEAN (treated right eyes, A.M. readings, Day 3, 10 mg/g (Group B)): 22.7 mmHg
- Intraocular Pressure, MEAN (treated right eyes, A.M. readings, Day 5, 1 mg/g (Group D)): 24.7 mmHg
- Intraocular Pressure, MEAN (treated right eyes, A.M. readings, Day 5, 5 mg/g (Group C)): 24.7 mmHg
- Intraocular Pressure, MEAN (treated right eyes, A.M. readings, Day 5, 10 mg/g (Group B)): 23.8 mmHg
- Intraocular Pressure, MEAN (treated right eyes, A.M. readings, Day 10, 1 mg/g (Group D)): 24.8 mmHg
- Intraocular Pressure, MEAN (treated right eyes, A.M. readings, Day 10, 5 mg/g (Group C)): 25.2 mmHg
- Intraocular Pressure, MEAN (treated right eyes, A.M. readings, Day 10, 10 mg/g (Group B)): 24.5 mmHg
- Intraocular Pressure, MEAN (treated right eyes, A.M. readings, Day 12, 1 mg/g (Group D)): 23.4 mmHg
- Intraocular Pressure, MEAN (treated right eyes, A.M. readings, Day 12, 5 mg/g (Group C)): 25.0 mmHg
- Intraocular Pressure, MEAN (treated right eyes, A.M. readings, Day 12, 10 mg/g (Group B)): 23.9 mmHg
- Intraocular Pressure, MEAN (treated right eyes, A.M. readings, Day 16, 1 mg/g (Group D)): 22.1 mmHg
- Intraocular Pressure, MEAN (treated right eyes, A.M. readings, Day 16, 5 mg/g (Group C)): 24.3 mmHg
- Intraocular Pressure, MEAN (treated right eyes, A.M. readings, Day 16, 10 mg/g (Group B)): 23.4 mmHg
- Intraocular Pressure, MEAN (treated right eyes, A.M. readings, Day 18, 1 mg/g (Group D)): 23.7 mmHg
- Intraocular Pressure, MEAN (treated right eyes, A.M. readings, Day 18, 5 mg/g (Group C)): 23.9 mmHg
- Intraocular Pressure, MEAN (treated right eyes, A.M. readings, Day 18, 10 mg/g (Group B)): 22.3 mmHg
- Intraocular Pressure, MEAN (treated right eyes, A.M. readings, Day 22, 1 mg/g (Group D)): 23.2 mmHg
- Intraocular Pressure, MEAN (treated right eyes, A.M. readings, Day 22, 5 mg/g (Group C)): 22.4 mmHg
- Intraocular Pressure, MEAN (treated right eyes, A.M. readings, Day 22, 10 mg/g (Group B)): 22.4 mmHg
- Intraocular Pressure, MEAN (treated right eyes, A.M. readings, Day 24, 1 mg/g (Group D)): 22.1 mmHg
- Intraocular Pressure, MEAN (treated right eyes, A.M. readings, Day 24, 5 mg/g (Group C)): 23.8 mmHg
- Intraocular Pressure, MEAN (treated right eyes, A.M. readings, Day 24, 10 mg/g (Group B)): 21.2 mmHg
- Intraocular Pressure, MEAN (treated right eyes, A.M. readings, Day 26, 1 mg/g (Group D)): 23.1 mmHg
- Intraocular Pressure, MEAN (treated right eyes, A.M. readings, Day 26, 5 mg/g (Group C)): 22.1 mmHg
- Intraocular Pressure, MEAN (treated right eyes, A.M. readings, Day 26, 10 mg/g (Group B)): 21.8 mmHg
- Intraocular Pressure, MEAN (treated right eyes, A.M. readings, Day 30, 1 mg/g (Group D)): 24.2 mmHg
- Intraocular Pressure, MEAN (treated right eyes, A.M. readings, Day 30, 5 mg/g (Group C)): 22.9 mmHg
- Intraocular Pressure, MEAN (treated right eyes, A.M. readings, Day 30, 10 mg/g (Group B)): 22.7 mmHg
- Intraocular Pressure, MEAN (treated right eyes, A.M. readings, Day 32, 1 mg/g (Group D)): 24.9 mmHg
- Intraocular Pressure, MEAN (treated right eyes, A.M. readings, Day 32, 5 mg/g (Group C)): 23.4 mmHg
- Intraocular Pressure, MEAN (treated right eyes, A.M. readings, Day 32, 10 mg/g (Group B)): 23.9 mmHg
- Intraocular Pressure, MEAN (treated right eyes, A.M. readings, Pre-Study, 1 mg/g (Group D)): 24.4 mmHg
- Intraocular Pressure, MEAN (treated right eyes, A.M. readings, Pre-Study, 5 mg/g (Group C)): 24.8 mmHg
- Intraocular Pressure, MEAN (treated right eyes, A.M. readings, Pre-Study, 10 mg/g (Group B)): 24.0 mmHg
- Intraocular Pressure, MEAN (untreated left eyes, P.M. readings, Day 3, 1 mg/g (Group D)): 25.0 mmHg
- Intraocular Pressure, MEAN (untreated left eyes, P.M. readings, Day 3, 5 mg/g (Group C)): 23.9 mmHg
- Intraocular Pressure, MEAN (untreated left eyes, P.M. readings, Day 3, 10 mg/g (Group B)): 23.3 mmHg
- Intraocular Pressure, MEAN (untreated left eyes, P.M. readings, Day 5, 1 mg/g (Group D)): 24.7 mmHg
- Intraocular Pressure, MEAN (untreated left eyes, P.M. readings, Day 5, 5 mg/g (Group C)): 24.8 mmHg
- Intraocular Pressure, MEAN (untreated left eyes, P.M. readings, Day 5, 10 mg/g (Group B)): 25.2 mmHg
- Intraocular Pressure, MEAN (untreated left eyes, P.M. readings, Day 10, 1 mg/g (Group D)): 24.9 mmHg
- Intraocular Pressure, MEAN (untreated left eyes, P.M. readings, Day 10, 5 mg/g (Group C)): 24.6 mmHg
- Intraocular Pressure, MEAN (untreated left eyes, P.M. readings, Day 10, 10 mg/g (Group B)): 23.5 mmHg
- Intraocular Pressure, MEAN (untreated left eyes, P.M. readings, Day 12, 1 mg/g (Group D)): 23.7 mmHg
- Intraocular Pressure, MEAN (untreated left eyes, P.M. readings, Day 12, 5 mg/g (Group C)): 23.3 mmHg
- Intraocular Pressure, MEAN (untreated left eyes, P.M. readings, Day 12, 10 mg/g (Group B)): 24.1 mmHg
- Intraocular Pressure, MEAN (untreated left eyes, P.M. readings, Day 16, 1 mg/g (Group D)): 21.9 mmHg
- Intraocular Pressure, MEAN (untreated left eyes, P.M. readings, Day 16, 5 mg/g (Group C)): 20.4 mmHg
- Intraocular Pressure, MEAN (untreated left eyes, P.M. readings, Day 16, 10 mg/g (Group B)): 21.4 mmHg
- Intraocular Pressure, MEAN (untreated left eyes, P.M. readings, Day 18, 1 mg/g (Group D)): 22.7 mmHg
- Intraocular Pressure, MEAN (untreated left eyes, P.M. readings, Day 18, 5 mg/g (Group C)): 21.9 mmHg
- Intraocular Pressure, MEAN (untreated left eyes, P.M. readings, Day 18, 10 mg/g (Group B)): 22.1 mmHg
- Intraocular Pressure, MEAN (untreated left eyes, P.M. readings, Day 22, 1 mg/g (Group D)): 22.1 mmHg
- Intraocular Pressure, MEAN (untreated left eyes, P.M. readings, Day 22, 5 mg/g (Group C)): 22.1 mmHg
- Intraocular Pressure, MEAN (untreated left eyes, P.M. readings, Day 22, 10 mg/g (Group B)): 22.6 mmHg
- Intraocular Pressure, MEAN (untreated left eyes, P.M. readings, Day 24, 1 mg/g (Group D)): 22.9 mmHg
- Intraocular Pressure, MEAN (untreated left eyes, P.M. readings, Day 24, 5 mg/g (Group C)): 22.2 mmHg
- Intraocular Pressure, MEAN (untreated left eyes, P.M. readings, Day 24, 10 mg/g (Group B)): 22.8 mmHg
- Intraocular Pressure, MEAN (untreated left eyes, P.M. readings, Day 26, 1 mg/g (Group D)): 22.1 mmHg
- Intraocular Pressure, MEAN (untreated left eyes, P.M. readings, Day 26, 5 mg/g (Group C)): 22.3 mmHg
- Intraocular Pressure, MEAN (untreated left eyes, P.M. readings, Day 26, 10 mg/g (Group B)): 21.4 mmHg
- Intraocular Pressure, MEAN (untreated left eyes, P.M. readings, Day 30, 10 mg/g (Group B)): 21.7 mmHg
